What was measured:
[1] = biological target: ALDH2 (Homo sapiens, UniProt P05091); assay: NADH fluorescence dehydrogenase assay; format: biochemical
[2] = tested on: CHRF; assay: cells; set-up: species or system CMK; conditions: 72 h, read-out: AB8939 (IC50 nM)
[3] = tested on: MESSA; assay: cells; set-up: species or system MES-SA/Mx2; conditions: Homo sapiens, MES-SA, read-out: MES-SA
[4] = biological target: ALDH1A1 (Homo sapiens, UniProt P00352); assay: NADH fluorescence dehydrogenase assay; format: biochemical
[5] = tested on: TG-LAM-134-P0; assay: cells; set-up: species or system primary AML patient blasts; conditions: 48 h, read-out: IC50 (µM) / AB8939
[6] = tested on: TG-LAM-77-P0; assay: cells; set-up: species or system primary AML patient blasts; conditions: 48 h, read-out: IC50 (µM) / AB8939
[7] = tested on: TG-LAM-139-P0; assay: cells; set-up: species or system primary AML patient blasts; conditions: 48 h, read-out: IC50 (µM) / AB8939
[8] = tested on: TG-LAM-140-P0; assay: cells; set-up: species or system primary AML patient blasts; conditions: 48 h, read-out: IC50 (µM) / AB8939
[9] = tested on: TG-LAM-75-P3; assay: cells; set-up: species or system primary AML patient blasts; conditions: 48 h, read-out: IC50 (µM) / AB8939
[10] = tested on: TG-LAM-144-P0; assay: cells; set-up: species or system primary AML patient blasts; conditions: 48 h, read-out: IC50 (µM) / AB8939
[11] = tested on: TG-LAM-142-P0; assay: cells; set-up: species or system primary AML patient blasts; conditions: 48 h, read-out: IC50 (µM) / AB8939
[12] = tested on: TG-LAM-136-P0; assay: cells; set-up: species or system primary AML patient blasts; conditions: 48 h, read-out: IC50 (µM) / AB8939
[13] = tested on: TG-LAM-138-P0; assay: cells; set-up: species or system primary AML patient blasts; conditions: 48 h, read-out: IC50 (µM) / AB8939
[14] = tested on: TG-LAM-76-P3; assay: cells; set-up: species or system primary AML patient blasts; conditions: 48 h, read-out: IC50 (µM) / AB8939
[15] = tested on: TG-LAM-143-P0; assay: cells; set-up: species or system primary AML patient blasts; conditions: 48 h, read-out: IC50 (µM) / AB8939
[16] = tested on: TG-LAM-141-P0; assay: cells; set-up: species or system primary AML patient blasts; conditions: 48 h, read-out: IC50 (µM) / AB8939
[17] = tested on: TG-LAM-135-P0; assay: cells; set-up: species or system primary AML patient blasts; conditions: 48 h, read-out: IC50 (µM) / AB8939
[18] = tested on: TG-LAM-145-P0; assay: cells; set-up: species or system primary AML patient blasts; conditions: 48 h, read-out: IC50 (µM) / AB8939
[19] = tested on: CMK; assay: cells; set-up: species or system CHRF; conditions: Homo sapiens, 72 h, read-out: AB8939 (IC50 nM)

Chain of ALDH2 (P05091 17-517): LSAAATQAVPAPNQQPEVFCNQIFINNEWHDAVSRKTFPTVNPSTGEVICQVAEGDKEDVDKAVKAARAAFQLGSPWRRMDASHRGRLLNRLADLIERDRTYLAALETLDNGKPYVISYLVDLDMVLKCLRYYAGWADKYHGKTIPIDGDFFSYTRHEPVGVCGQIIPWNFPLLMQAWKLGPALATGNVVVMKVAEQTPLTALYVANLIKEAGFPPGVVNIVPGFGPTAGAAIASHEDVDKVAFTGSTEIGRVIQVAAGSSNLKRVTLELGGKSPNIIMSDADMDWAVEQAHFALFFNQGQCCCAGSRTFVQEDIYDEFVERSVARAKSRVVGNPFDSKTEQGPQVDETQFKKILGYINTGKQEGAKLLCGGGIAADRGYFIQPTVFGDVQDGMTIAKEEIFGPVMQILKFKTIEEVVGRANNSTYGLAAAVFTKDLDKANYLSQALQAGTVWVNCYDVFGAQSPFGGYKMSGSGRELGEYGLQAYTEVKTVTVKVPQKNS
Chain of ALDH1A1 (P00352 2-501): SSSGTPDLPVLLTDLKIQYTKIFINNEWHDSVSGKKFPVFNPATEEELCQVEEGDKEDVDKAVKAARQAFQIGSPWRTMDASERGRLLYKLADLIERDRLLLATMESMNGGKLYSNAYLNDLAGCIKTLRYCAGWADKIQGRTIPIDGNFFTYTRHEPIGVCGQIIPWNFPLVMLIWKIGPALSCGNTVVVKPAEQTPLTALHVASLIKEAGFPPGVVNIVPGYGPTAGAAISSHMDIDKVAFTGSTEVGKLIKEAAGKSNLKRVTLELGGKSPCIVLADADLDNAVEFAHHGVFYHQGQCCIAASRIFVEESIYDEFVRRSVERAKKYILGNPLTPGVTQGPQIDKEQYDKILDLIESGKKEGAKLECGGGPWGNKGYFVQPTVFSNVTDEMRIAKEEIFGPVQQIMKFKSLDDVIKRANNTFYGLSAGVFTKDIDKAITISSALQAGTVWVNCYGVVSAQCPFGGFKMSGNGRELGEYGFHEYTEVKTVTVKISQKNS

How did the IC50 [1] turn out when `CCOCc1ccc(C)c(Nc2ncc(-c3ccc(N4CCNC4=O)cc3)o2)c1` [AB8939] was run?
Its IC50 is 340 nM.

And the IC50 [2]?
The IC50 was 9.7 nM.

What about the IC50 [3] of the same compound?
The IC50 was 5.7 ± 5 nM.

What about the IC50 [4] of the same compound?
The IC50 was 610 nM.

What about the IC50 [5] of the same compound?
Its IC50 is 0.08 µM.

What about the IC50 [6] of the same compound?
The IC50 was greater than 5 µM.

And the IC50 [7]?
Its IC50 is 0.94 µM.

What about the IC50 [8] of the same compound?
The IC50 was 0.06 µM.

What about the IC50 [9] of the same compound?
The IC50 was 0.05 µM.

And the IC50 [10]?
Its IC50 is 0.38 µM.

And the IC50 [11]?
The IC50 was greater than 5 µM.

And the IC50 [12]?
Its IC50 is 0.04 µM.

What about the IC50 [13] of the same compound?
Its IC50 is greater than 5 µM.

What about the IC50 [14] of the same compound?
Its IC50 is 0.013 µM.

What about the IC50 [15] of the same compound?
Its IC50 is 0.36 µM.

And the IC50 [16]?
Its IC50 is 0.12 µM.

What about the IC50 [17] of the same compound?
The IC50 was greater than 5 µM.

What about the IC50 [18] of the same compound?
The IC50 was 1.8 µM.

And the IC50 [19]?
Its IC50 is 5.68 nM.

From publication doi:10.64898/2025.12.10.692519v1 (biorxiv, 2025)
